Literature values as cited in US20070196322A1, “Method of preparing the colon for virtual colonoscopy” (Braintree Laboratories Inc., priority 2005, published 2007).
Like-named read-outs stand apart in the source and are kept apart here.

System: patient

What does the source list for `CC(=O)Oc1ccc(C(c2ccc(OC(C)=O)cc2)c2ccccn2)cc1` [Bisacodyl, bisacodyl]?
time to bowel movement (enemas): about 20 minutes; time to bowel movement (oral administration of a tablet): three to six; time to bowel movement (oral administration of a tablet, listed as bisacodyl): three to about six; time to bowel movement (suppositories): about an hour
